Read-outs that look alike come from different tables or passages of the source.

In patent US20260297060A1, “COMPOUNDS FOR THE DEGRADATION OF MUTANT BRAF” (C4 THERAPEUTICS, INC., priority 2023, published 2026) one finds concentration, GI50 and Emax data, which are given here for four compounds.

The nature of data set [1]: Example 6 pharmacokinetics assay for PKPD study (plasma, tumor, liver). The settings on record: mouse, po, single dose. It counts as in vivo, BALB/c nude mice. The procedure: For the pharmacokinetic/pharmacodynamic (PKPD) study, compounds were tested in the A375 human melanoma xenografts. Known BRAF inhibitors encorafenib, and dabrafenib were used as positive controls. Encorafenib, dabrafenib, Compound 83, Compound 93, Compound 70, and Compound 54 were administered to BALB/c nude mice bearing A375 tumors on PG-D1 and dosed orally (PO) once. Encorafenib was dosed at 35 mg/kg. Dabrafenib was dosed at 100 mg/kg. Compound 83, Compound 93, Compound 70, and Compound 54 were dosed at 10 mg/kg. The plasma and tumor samples were collected at 1, 6, 12 and 24 hours, and liver samples were collected at 6 hours and 12 hours post the single dose. This study was non-GLP study.
The plasma samples were collected at predetermined time points for PK analysis. The mice were euthanized at predetermined time points post the treatment. The blood samples were collected into the 1.5 mL Eppendorf tubes containing 15 μL of 0.5 M EDTA-K2. And then the anticoagulant blood samples were centrifuged at 2,500 g at 4° C. for 15 minutes. The plasma samples were separated into 2 aliquots. The 1st was used for PK analysis, and the 2nd served as backup. The samples were stored at −80° C. before bioanalysis.
The tumor samples were collected at predetermined time points for PK and WB analysis (B-RAF and p-ERK). The tumor was dissected out and split into 3 parts. The 1st part was used for PK analysis, the 2nd part was used for WB analysis and the last one served as backup for study. The samples were transferred into pre-labeled tubes and quickly froze in liquid nitrogen within 2 minutes after dissection. The samples were stored at −80° C. before bioanalysis.
Liver samples were collected at predetermined time points for PK analysis. The left lobe of the liver was dissected out and split into 2 parts. The 1st part was used for PK analysis and the 2nd part served as the backup for the study. The samples were transferred into pre-labeled tubes and quickly froze in liquid nitrogen within 2 minutes after dissection. The samples were stored at −80° C. before bioanalysis.
For PKPD study, the harvested plasma, tumor and liver were processed for pharmacokinetics analysis by LC/MS/MS with a concentration range of 0.5-1000 ng/mL for Encorafenib and Dabrafenib in plasma, 0.05-100 ng/mL for Encorafenib and Dabrafenib in tumor, 0.2-200 ng/mL for Encorafenib and Dabrafenib in liver, 2.0-2000 ng/mL for compound 93, compound 83, compound 54 and compound 70 in liver, 50.0-50000 ng/mL for compound 83 and compound 70 in plasma, 0.5-1000 ng/mL for compound 83 and compound 70 in tumor, 1.0-2000 ng/mL for compound 93 in plasma, 10.0-20000 ng/mL for compound 54 in plasma, 0.5-500 ng/mL for compound 93 and compound 54 in tumor.

In data set [2] the test system is A375-NRAS^Q61K cells. The experiment in a line: CTGlo Cell Viability Assay, A375-NRAS^Q61K (A375.11) cells, 96 hours. It is filed as cell-based, human. To be noted: Homo sapiens, 96 h, A375.11 (A375-NRAS^Q61K) cells; for Emax: lowest % viability achieved. Put shortly: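 A375 cells carrying BRAF V600E and NRAS Q61K were seeded at 250 cells/well with a 10-point half-log dose series (max 10 μM final). After 96 h at 37 °C, viability was read as ATP luminescence (CellTiter-Glo), background-subtracted and normalized to DMSO (100%). GI50 from 4-parameter fit; Emax is the lowest % viability.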

Where [3] appears, read: liver, 35 mg/kg, read-out: Concentration in Liver (mean ± SEM).
Where [4] appears, read: plasma, 35 mg/kg, read-out: Concentration in Plasma (mean ± SEM).
Setting [5] is: tumor, 35 mg/kg, read-out: Concentration in Tumor (mean ± SEM).
[6] abbreviates: liver, 100 mg/kg, read-out: Concentration in Liver (mean ± SEM).
Where [7] appears, read: plasma, 100 mg/kg, read-out: Concentration in Plasma (mean ± SEM).
Setting [8] is: tumor, 100 mg/kg, read-out: Concentration in Tumor (mean ± SEM).

Regarding `COC(=O)N[C@@H](C)CNc1nccc(-c2cn(C(C)C)nc2-c2cc(Cl)cc(NS(C)(=O)=O)c2F)n1` [Encorafenib, encorafenib, reference compound], in data set [1] (setting [3]), the concentration at 6 h came out at 375 ± 82 ng/g and the concentration at 12 h came out at 12.6 ± 5.14 ng/g. For the same compound, in data set [1] (setting [4]), the concentration at 1 h was 5720 ± 493 ng/mL, the concentration at 6 h came to 654 ± 169 ng/mL, the concentration at 12 h stood at 17.3 ± 7.09 ng/mL and the concentration at 24 h stood at 0.895 ng/mL. In addition, in data set [1] (setting [5]), the concentration at 1 h was 1250 ± 161 ng/g, the concentration at 6 h came out at 135 ± 22.8 ng/g, the concentration at 12 h came out at 18.1 ± 7.47 ng/g and the concentration at 24 h was found to be 2.63 ± 0.386 ng/g.

Regarding `CO[C@@H]1CCN(S(=O)(=O)Nc2ccc(F)c(Oc3ccc4ncn(C5CC6(CCN(C7CC8(C7)CN(c7cc9c(cc7F)c(N7CCC(=O)NC7=O)nn9C)C8)CC6)C5)c(=O)c4c3)c2C#N)C1` (stereo partly drawn) [Compound 269, (3R)-N-[2-cyano-3-[3-[7-[2-[3-(2,4-dioxohexahydropyrimidin-1-yl)-5-fluoro-1-methyl-indazol-6-yl]-2-azaspiro[3.3]heptan-6-yl]-7-azaspiro[3.5]nonan-2-yl]-4-oxo-quinazolin-6-yl]oxy-4-fluoro-phenyl]-3-methoxy-pyrrolidine-1-sulfonamide], in data set [2], the 50% growth inhibitory concentration (GI50) was below 1000 nM and the Emax was below 50%.

For the compound `COC1CN(S(=O)(=O)Nc2ccc(F)c(Oc3ccc4ncn(C5CC6(CCN(C7CC8(C7)CN(c7cc9c(cc7F)c(N7CCC(=O)NC7=O)nn9C)C8)CC6)C5)c(=O)c4c3)c2C#N)C1` (stereo not drawn) [Compound 280, N-[2-cyano-3-[3-[7-[2-[3-(2,4-dioxohexahydropyrimidin-1-yl)-5-fluoro-1-methyl-indazol-6-yl]-2-azaspiro[3.3]heptan-6-yl]-7-azaspiro[3.5]nonan-2-yl]-4-oxo-quinazolin-6-yl]oxy-4-fluoro-phenyl]-3-methoxy-azetidine-1-sulfonamide], in data set [2], the GI50 is below 1000 nM and the Emax was below 50%.

With `CC(C)(C)c1nc(-c2cccc(NS(=O)(=O)c3c(F)cccc3F)c2F)c(-c2ccnc(N)n2)s1` [Dabrafenib, dabrafenib, reference compound], in data set [1] (setting [6]), the concentration at 6 h came to 157 ± 12.3 ng/g and the concentration at 12 h worked out at 19.2 ± 5.84 ng/g. Also, in data set [1] (setting [7]), the concentration at 1 h is 276 ± 17.2 ng/mL, the concentration at 6 h worked out at 46.2 ± 5.05 ng/mL, the concentration at 12 h worked out at 6.74 ± 2.73 ng/mL and the concentration at 24 h came to 0.725 ± 0.11 ng/mL. For the same compound, in data set [1] (setting [8]), the concentration at 1 h is 225 ± 29.2 ng/g, the concentration at 6 h came to 32.8 ± 0.26 ng/g, the concentration at 12 h was determined as 9.59 ± 1.68 ng/g and the concentration at 24 h is 1.34 ± 0.369 ng/g.

A word on the GI50: it is the concentration that inhibits growth by half.
